Legend:
Trypanosoma cruzi [1] = test: Antitrypanosomal activity against bloodstream form of Trypanosoma cruzi Y trypomastigotes infected in African green monkey Vero cells assessed as increase in parasite lysis measured after 24 hrs by Neubauer chamber method; format: functional, organism-based
[2] = Selectivity index, ratio of GI50 for human HepG2 cells assessed as reduction in cell viability measured after 24 hrs by WST1 assay to IC50 for antitrypanosomal activity against Trypanosoma cruzi Y axenic amastigotes infected in African green monkey Vero cells; format: toxicity; conditions: read-out: Selectivity Index
[3] = Selectivity index, ratio of GI50 for mouse RAW264.7 cells assessed as reduction in cell viability measured after 24 hrs by WST1 assay to IC50 for antitrypanosomal activity against Trypanosoma cruzi Y axenic amastigotes infected in African green monkey Vero cells; format: toxicity; conditions: read-out: Selectivity Index
[4] = Cytotoxicity against mouse RAW264.7 cells assessed as reduction in cell viability measured after 24 hrs by WST1 assay; format: cell-based
[5] = Selectivity index, ratio of GI50 for mouse RAW264.7 cells assessed as reduction in cell viability measured after 24 hrs by WST1 assay to IC50 for antitrypanosomal activity against bloodstream form of Trypanosoma cruzi Y trypomastigotes infected in African green monkey Vero cells; format: toxicity; conditions: read-out: Selectivity Index
[6] = Selectivity index, ratio of GI50 for human HepG2 cells assessed as reduction in cell viability measured after 24 hrs by WST1 assay to IC50 for antitrypanosomal activity against bloodstream form of Trypanosoma cruzi Y trypomastigotes infected in African green monkey Vero cells; format: toxicity; conditions: read-out: Selectivity Index
Trypanosoma cruzi [7] = test: Antitrypanosomal activity against Trypanosoma cruzi Y axenic amastigotes infected in African green monkey Vero cells after 24 hrs by MTT assay; format: functional, organism-based
[8] = Cytotoxicity against human HepG2 cells assessed as reduction in cell viability measured after 24 hrs by WST1 assay; format: cell-based
HepG2 [9] = test: Genotoxicity in human HepG2 assessed as mitotic index at 100 ug/ml measured after 24 hrs by micronucleus test (reference value: 61 to 108); format: toxicity, cell-based; conditions: hepg2, 24 h, dose 100 µg/ml
HepG2 [10] = test: Genotoxicity in human HepG2 assessed as number of micronucleated cells at 100 ug/ml measured after 24 hrs by micronucleus test (reference value: 14 to 18); format: toxicity, cell-based; conditions: hepg2, 24 h, dose 100 µg/ml
[11] = Genotoxicity in human HepG2 assessed as survival at 100 ug/ml measured after 24 hrs by micronucleus test (reference value: 100%); format: toxicity, cell-based; conditions: HepG2 cells, at 100 µg/mL, read-out: Survival

SMILES	IC50 (Trypanosoma cruzi [1])	selectivity ratio at 24 h [2]	selectivity ratio at 24 h [3]	GI50 at 24 h [4]	selectivity ratio at 24 h [5]	selectivity ratio at 24 h [6]	IC50 (Trypanosoma cruzi [7])	GI50 at 24 h [8]	Activity_index (HepG2 [9])	Activity (HepG2 [10])	viability at 24 h, 100 ug/ml [11]
Cn1cnc([N+](=O)[O-])c1-n1cc(-c2cccc(N)c2)nn1	41.2 µM										
O=C(Cn1ccnc1[N+](=O)[O-])NCc1ccccc1 [BENZNIDAZOLE]	8.8 µM	> 57	> 57	> 500 µM	> 56	> 56	8.7 µM	> 500 µM			
c1ccc2c(c1)cc1ccc3cccc4ccc2c1c34 [BENZO[DEF]CHRYSENE]									57	31	99%

— ChEMBL document CHEMBL4680133, “Novel nitroimidazole derivatives evaluated for their trypanocidal, cytotoxic, and genotoxic activities” (Eur J Med Chem, 2020)
